{
  "source": "patent US20120252865A1",
  "about": "“CARBAMATE DERIVATIVES IN PARTICULAR FOR THE TREATMENT OF NEUROLOGICAL DISORDERS” (SIGMA-TAU INDUSTRIE FARMACEUTICHE RIUNITE S.P.A., priority 2009, published 2012)",
  "key": {"mechanical hyperalgesia": {"test_system": "mechanical hyperalgesia", "assay": "Paw withdrawal test for mechanical hyperalgesia (Randall-Selitto analgesimeter)", "assay_type": "in vivo", "details": "rat, 50 mg/kg (FIG. 1)", "experimental": "The paw withdrawal test was used to assess mechanical hyperalgesia. The nociceptive threshold, expressed in grams, was measured by applying increasing pressure to the left and right hind paws using a Randall-Selitto analgesimeter (Ugo Basile, Varese, Italy). The parameter used to quantify the nociceptive threshold was defined as the pressure (grams) at which the rat withdrew its paw. Rats were habituated to the testing procedures and handling by the investigator in the week prior to the experiment.\nDose response experiments at 10, 30 and 100 mg/kg were also conducted with ST4068, ST3911 and ST3913."}, "anxiety": {"test_system": "anxiety", "details": "Kathuria S., et al, Nat. Med., 2003; cited from earlier work"}, "pain [1]": {"test_system": "pain", "details": "Kathuria S., et al, Nat. Med., 2003; cited from earlier work"}, "pain [2]": {"test_system": "pain", "details": "Kathuria S., et al, Nat. Med., 2003; cited from earlier work", "remark": "listed apart in the source"}},
  "data": [
    {"compound": "NC(=O)c1cccc(-c2cccc(OC(=O)NC3CCCCC3)c2)c1", "note": "[URB597]", "values": [
      {"measurement": "analgesic activity (nociceptive threshold, paw withdrawal)", "setting": "mechanical hyperalgesia", "result": "did not show any activity"},
      {"measurement": "efficacy in the zero plus maze animal model of anxiety", "setting": "anxiety", "result": "efficacious"},
      {"measurement": "analgesic efficacy in the rat hot plate test", "setting": "pain [1]", "result": "analgesic efficacy"},
      {"measurement": "analgesic efficacy in the rat formalin test", "setting": "pain [2]", "result": "analgesic efficacy"}
    ]}
  ]
}
